Entries after “also recorded” stand apart in the source; their conditions may differ.
What was measured:
Format in all cases: cell-based
PXR (NR1I2) = molecular target: T1, PXR (NR1I2) (Homo sapiens, UniProt O75469); test: Gal4-PXR hybrid reporter gene assay (off-target profiling); conditions: compared with T0901317
T1 construct: coding for the hinge region, and LBD of the canonical isoform of the respective nuclear receptor; expressed in transfected cells; host or cells: HEK293T
T1 sequence (O75469 146-433 limits assumed): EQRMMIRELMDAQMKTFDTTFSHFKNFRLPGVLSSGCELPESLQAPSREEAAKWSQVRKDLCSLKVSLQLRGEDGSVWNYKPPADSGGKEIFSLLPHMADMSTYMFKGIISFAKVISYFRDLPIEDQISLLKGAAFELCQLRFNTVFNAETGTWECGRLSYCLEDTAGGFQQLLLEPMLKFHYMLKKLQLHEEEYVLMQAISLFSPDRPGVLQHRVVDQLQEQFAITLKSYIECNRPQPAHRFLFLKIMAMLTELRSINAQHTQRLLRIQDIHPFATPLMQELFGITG
Excerpt: (§1) For the hybrid reporter gene assays, the previously reported Gal4-fusion receptor plasmids pFA-CMV-hRORα-LBD, pFA-CMV-hRORβ-LBD, pFA-CMV-hRORγ-LBD, pFA-CMV-hLXRα-LBD, pFA-CMV-hLXRβ-LBD, pFA-CMV-hFXR-LBD, pFA-CMV-hPXR-LBD, and pFA-CMV-hRXRα-LBD, coding for the hinge region, and LBD of the canonical isoform of the respective nuclear receptor were used. pFR-Luc (Stratagene) was used as the reporter plasmid, and pRL-SV40 (Promega) was used in all assays for the normalization of transfection efficiency and cell growth. pECE-SV40-Gal4-VP16 was a gift from Lea Sistonen (Addgene plasmid #71728). The LXR-responsive reporter ABCA1-pGL3 was used for the full-length reporter gene assay.
(§2) The day before transfection, HEK293T cells were seeded in 96-well plates (4 × 10^4 cells/well). Before transfection, the medium was changed to Opti-MEM without any supplements. […] Luminescence was measured with a Spark 10 M luminometer (Tecan Deutschland GmbH). […] EC50/IC50 values and the standard errors thereof were calculated with the mean fold activation values by OriginPro, Version 2025 (OriginLab Corporation, Northampton, MA, USA), fitting a dose–response curve with a variable Hill slope (Levenberg–Marquardt algorithm). […]

FXR (NR1H4) = molecular target: T2, FXR (NR1H4) (Homo sapiens, UniProt Q96RI1); test: Gal4-FXR hybrid reporter gene assay (off-target profiling); conditions: compared with T0901317
T2 construct: coding for the hinge region, and LBD of the canonical isoform of the respective nuclear receptor; expressed in transfected cells; host or cells: HEK293T
T2 sequence (Q96RI1 262-486 limits assumed): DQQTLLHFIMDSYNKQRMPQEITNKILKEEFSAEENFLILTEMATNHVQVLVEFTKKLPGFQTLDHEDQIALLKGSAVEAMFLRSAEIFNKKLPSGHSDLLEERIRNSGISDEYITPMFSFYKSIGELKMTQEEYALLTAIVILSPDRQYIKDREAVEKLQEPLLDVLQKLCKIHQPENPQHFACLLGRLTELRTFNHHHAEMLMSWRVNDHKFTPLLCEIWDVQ
Excerpt: as §1, §2

Gal4-VP16 = Gal4-VP16 control experiment (ligand-independent transcriptional activator); conditions: 30 μM; vs 0.1% DMSO
Excerpt: as §1
as §2, with “cells/well).” for “cells/well). Before transfection, the medium was changed to Opti-MEM without any supplements.”
(§3) mediated inhibition of the LXR/RXR heterodimer. […] (c) Quantification of LXR expression on mRNA level in HEK293T and HepG2 cell lines using qRT -PCR. Expression levels were calculated according to the 2 -ΔCt method relative to GAPDH. […]

RXRα = molecular target: T3, RXRα (Homo sapiens, UniProt P19793); test: Gal4-RXRα hybrid reporter gene assay (control); conditions: 30 μM; alone and in competition with bexarotene 1 μM
T3 construct: coding for the hinge region, and LBD of the canonical isoform of the respective nuclear receptor; expressed in transfected cells; host or cells: HEK293T
T3 sequence (P19793 227-458 limits assumed): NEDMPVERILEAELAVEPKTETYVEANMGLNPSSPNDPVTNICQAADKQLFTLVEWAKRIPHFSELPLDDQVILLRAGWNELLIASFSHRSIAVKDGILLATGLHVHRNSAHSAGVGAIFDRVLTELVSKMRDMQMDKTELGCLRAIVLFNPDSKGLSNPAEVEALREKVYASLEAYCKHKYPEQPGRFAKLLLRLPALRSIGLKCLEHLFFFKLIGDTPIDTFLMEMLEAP
Excerpt: as §1
as §2, with “cells/well).” for “cells/well). Before transfection, the medium was changed to Opti-MEM without any supplements.”
as §3

Row | SMILES | PXR activity (PXR (NR1I2)) | FXR activity (FXR (NR1H4)) | influence on Gal4-VP16-mediated luciferase reporter expression (Gal4-VP16) | RXR modulation (RXRα)
1 | CCN(C(=O)c1ccccc1)c1ccc(C(O)(C(F)(F)F)C(F)(F)F)cc1 [Compound 1, N-Ethyl-N-(4-[1,1,1,3,3,3-hexafluoro-2-hydroxypropan-2-yl]phenyl)benzamide] | reduced activity; also recorded: PXR agonism was retained | no activity; also recorded: did not affect | – | –
2 | CS(=O)(=O)c1cccc(-c2ccc(CN(Cc3cccc(C(F)(F)F)c3Cl)CC(c3ccccc3)c3ccccc3)cc2)c1 [Compound 3, N-(2-Chloro-3-[trifluoromethyl]benzyl)-N-([3′-{methylsulfonyl}-{1,1′-biphenyl}-4-yl]methyl)-2,2-diphenylethan-1-amine] | – | – | no influence | neither activated RXR nor competed with literature RXR agonist bexarotene

— paper PMC12621175, “Scaffold Fusion and SAR Transfer with a Chemical Language Model Generates Novel Liver X Receptor Modulators” (Journal of Medicinal Chemistry, 2025)
